Here are results for one molecule from patent publication US20180021315A1, “METHODS OF TREATING HEARING DISORDERS” (Wayne State University, priority 2016, published 2018).

Experiment [1] relates to Pyramidal neurons. Briefly: Patch clamp mIPSC and mEPSC in brain slices after noise exposure. In kind it is in vivo, mouse. Here is the method:
Three groups of C75BL6 mice were used. Two were exposed to 123-dB noise in the left ear for two hours. Animals in one of the two exposed group were administered 3,6′-dithiothalidomide. The drug was administered daily for five days. The remaining third group underwent the same procedure but without noise exposure or drug administration. On day 10 post-noise exposure, animals were euthanized and brain slices were prepared. Pyramidal neurons in the brain slices were recorded as described above. Miniature inhibitory and excitatory synaptic transmissions (mIPSC and mEPSC) were examined.
On the technique in general: Patch clamp records ionic current or voltage across a cell membrane.

Experiment [2] deals with DCN, IC and AC neurons. Nature of the experiment: Neurophysiological recordings of DCN, IC and AC after blast exposure. In kind it is in vivo, rat. To be noted: blast-exposed rats, 56 mg/kg i.p. The protocol: Rats were exposed or sham-exposed to a blast shockwave. To determine whether TNF-α is involved in blast-induced tinnitus, the rats were injected once daily for 5 days with 3,6′-dithiothalidomide starting 7 days after blast exposure. Behavioral testing and ABR recordings started 1 day after drug injection and lasted for three weeks.
Neurophysiological recordings of the left DCN, right IC and right AC were performed 3 weeks after drug or vehicle injection. Each rat was anesthetized with a mixture of air (1 liter/min) and isoflurane (5% v/v) and then secured in a stereotaxic frame with hollow ear bars (model 1530; David Kopf Instruments, Tujunga, Calif.). A mixture of air (1 liter/min) and isoflurane (1.75-2.5% v/v) was used to maintain anesthesia during surgery and recordings. In order to maintain the rat's body temperature at 37° C., a thermostat-controlled blanket (Harvard Apparatus, Holliston, Mass.) was used during the procedure. For electrophysiological recording, electrode arrays were inserted into the DCN, IC, and AC. Prior to insertion, the electrode probe was dipped into a 3% DiI solution (1,10-dioctadecyl-3,3,30,30-tetramethylindocarbocyanine perchlorate; Invitrogen, Carlsbad, Calif.) prepared with dimethylformamide to label the electrode insertion tracks. By using a micromanipulator (model 1460-61; David Kopf Instruments), an eight-shank, 32-channel electrode probe (NeuroNexus Technologies, Ann Arbor, Mich.) was inserted into the DCN and the probe was inserted into a depth of […] below the DCN surface, corresponding to the fusiform cell layer. For the IC, a two-shank 32-Channel (NeuroNexus) probe was inserted 20° off of the sagittal plane and 30° off of the horizontal plane through the occipital cortex into the IC. To implant in the AC, a 32 (4×8) microwire array was implanted 2.7 to 5.8 mm posterior to the bregma, and ˜0.8-1.0 mm from the cortical surface. After probe placement, the brain was covered with agarose to avoid tissue swelling and drying. The probe connector was connected to a real-time signal processing system (RZ2, TDT) with a 25 kHz sampling rate and a 100-3000 Hz bandpass filter. Spontaneous activity, frequency tuning curves (FTCs), and acoustic stimulation with tone and noise bursts (BBN) was recorded. Spontaneous single- and multi-unit spikes were recorded twice; one 5 min prior to and one 5 min after frequency tuning curve (FTC) construction. Each spontaneous recording period lasted 5 min. FTCs were obtained to determine the frequency representation of each implanted electrode in the DCN, IC and AC using tone sweeps (50 ms in duration, 2-44 kHz, incremental steps of 2 dB, sound level range of 0-85 dB SPL).

Experiment [3] has as its system AC pyramidal neurons. Nature of the experiment: Patch clamp recording of miniature synaptic currents in AC slices after blast exposure. In kind it is in vivo, rat. Here is the method: Two groups of 7 rats each were exposed to blast shockwaves as described above, and an additional group of 7 rats was sham-exposed. One of the exposed groups was administered 3,6′-dithiothalidomide for five days starting on the day of the exposure, and the other exposed group was administered vehicle. Brain slides were prepared from the AC of the rats 10-20 days after the blast exposure. Pyramidal neurons were recorded using the patch clamp method. Miniature synaptic currents were recorded to assess the functional states of the excitatory and inhibitory synaptic transmission. Neurons were filled with biocytin, which was stained with immunocytochemistry to reveal the morphology of the recorded neurons.

“Also recorded” adds a separate entry of the source.

`O=C1NC(=S)CCC1N1C(=O)c2ccccc2C1=S` (stereo not shown) [3,6′-dithiothalidomide]: the “mIPSC frequency (noise-induced reduction)” value in experiment [1] (mice, 123-dB noise 2 h, 28 mg/kg daily for five days, day 10, FIG. 26A, 28 mg/kg) is given as “completely reversed; also recorded: rescues the reduction in mIPSC frequency”. The “mIPSC amplitude (noise-induced reduction)” value in experiment [1] (mice, 123-dB noise 2 h, 28 mg/kg, FIG. 26B) is “rescues the reduction in mIPSC amplitude”. Further, the mEPSC frequency entry in experiment [1] (noise-exposed treated mice relative to control mice, FIG. 26C) is recorded as “no effect”. Also, the mEPSC amplitude result in experiment [1] (noise-exposed treated mice relative to control mice, FIG. 26D) is “no significant effect”. The “neuronal firing synchrony (correlogram ratio)” value in experiment [2] (DCN, IC and AC, FIGS. 22A-22C) is “significantly reduced neuronal firing synchrony”. Moreover, the “spontaneous bursting rate in the DCN” value in experiment [2] (FIG. 20A) is listed as “reduced bursting rates in blast-exposed animals to the control level”. For the same molecule, the “spontaneous firing rate in the DCN” value in experiment [2] (FIG. 20B) was “reduced firing rates in blast-exposed animals to the control level”. Further, the “spontaneous bursting rate in the AC” value in experiment [2] (FIG. 21A) is on record as “reduced bursting rates in blast-exposed animals relative to vehicle”. Besides, the “spontaneous firing rate in the AC” value in experiment [2] (FIG. 21B) is “reduced firing rates in blast-exposed animals to the control level”. Besides, the “cumulative distribution of mIPSC frequency (blast-induced shift to lower frequencies)” value in experiment [3] (56 mg/kg i.p., Kolmogorov-Smirnov Test p<0.001, FIG. 19) was “reversed this effect”. Besides, the “mIPSCs in recording traces of auditory cortical neurons” value in experiment [3] (blast-exposed rats, drug for five days from day of exposure, vs vehicle-treated, FIG. 17C) is listed as “less reduction in mIPSCs”. Further, the “mIPSC frequency (blast-induced reduction)” value in experiment [3] (blast-exposed rats, 56 mg/kg i.p. daily, FIG. 18B) is recorded as “completely abolished the blast-induced reduction”. Further, the mIPSC amplitude result in experiment [3] (blast-exposed rats, 56 mg/kg i.p., relative to sham-blast controls, FIG. 18A) is given as “did not significantly change mIPSC amplitudes”.
